According to US9057725B2, “Composition for diagnosing, treating, and preventing liver disease” (SNU R&DB Foundation, priority 2010, dated 2015):
Entries after “also recorded” stand apart in the source; their conditions may differ.

Experiments:
TM4SF5 [1] = target: T1, TM4SF5 (Homo sapiens, UniProt O14894); test: TGFβ1 mediated vimentin expression in Chang cells, Western blotting; format: cell-based; conditions: 5 μM or 10 μM
T1 construct: endogenous in cells; host or cells: Chang cells (ATCC), TGFβ-treated
T1 sequence (O14894 1-197): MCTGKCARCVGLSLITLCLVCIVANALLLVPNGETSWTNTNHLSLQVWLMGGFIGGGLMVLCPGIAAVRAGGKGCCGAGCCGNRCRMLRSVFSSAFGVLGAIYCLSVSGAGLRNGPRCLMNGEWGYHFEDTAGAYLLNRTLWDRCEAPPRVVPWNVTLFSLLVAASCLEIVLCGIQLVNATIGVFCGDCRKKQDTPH
Description: FIG. 26 is a set of photographs illustrating the results of Western blotting performed to confirm the level of vimentin expression mediated by TGFβ in Chang cells treated with TSAHC, 4′-(p-aminobenzenesulfoneamide)-4-hydroxychalcone, and 4,4-dihydroxychalcone.
(§1) In addition, 4′-(p-aminobenzenesulfonamide)-4-hydroxychalcone (ASAHC), the water-soluble […], was treated to AML12 and Chang cells at the concentration of 5 μM or 10 μM.

TM4SF5 [2] = target: T2, TM4SF5 (Mus musculus, UniProt F6X2F3); test: TGFβ1 mediated vimentin expression in AML12 cells, Western blotting; format: cell-based; conditions: 5 μM or 10 μM
T2 construct: normal hepatocytes were treated with TGFβ to induce TM4SF5 expression and EMT, during which TSAHC was treated; endogenous in cells; host or cells: AML12 (ATCC), TGFβ-treated
T2 sequence (F6X2F3 1-196): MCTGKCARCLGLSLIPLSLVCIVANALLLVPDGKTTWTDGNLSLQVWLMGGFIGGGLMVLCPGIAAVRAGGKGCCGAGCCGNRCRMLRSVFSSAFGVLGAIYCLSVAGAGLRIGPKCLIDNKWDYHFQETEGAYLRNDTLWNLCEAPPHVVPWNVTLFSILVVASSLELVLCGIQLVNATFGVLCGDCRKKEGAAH
Description: FIG. 27 is a set of photographs illustrating the results of Western blotting performed to confirm the level of vimentin expression mediated by TGFβ in AML12 cells treated with TSAHC, 4′-(p-aminobenzenesulfoneamide)-4-hydroxychalcone, and 4,4-dihydroxychalcone.
as §1

[3] = system: Balb/c mice treated with CCl4; test: Hepatic injury and hepatic fibrosis induced by CCl4 in mice; format: in vivo, mouse; conditions: for hepatic injury (H&E staining): 50 mg/kG oral administration or IP, 3 times/week; for hepatic injury (H&E staining) / collagen type I expression (Masson's Trichrome staining): 2 weeks; for collagen type I expression (Masson's Trichrome staining): oral administration or IP, 50 mg/kG; for Ser10 phosphorylation induction (p27) / TM4SF5 signal transduction process (phosphorylation of Smad3, phosphorylation and activation of EFGR/Erk) / p27 expression / α-SMA expression induction: liver tissue extract, Western blotting
Description: Balb/c mice (5 weeks old, n=5) were used. The mice were fed with sterilized water and feeds. For the biological day/night cycle, the indoor light was turned on for 12 hours and off for 12 hours. The mice were treated with CCl4 or ethanol for 2 weeks. The CCl4 group mice were treated with 40% CCl4 diluted in olive oil by intraperitoneal administration ([…], 3 times/week). The CCl4-ContComp group mice were treated with 4′-Amino-4-hydroxychalcone, the control compound (ContComp), every other day and every next day of CCl4 treatment by IP (intraperitoneal injection) or oral administration (50 mg/kG, 40% DMSO, 3 times/week). The CCl4-TSAHC group mice were treated with TSAHC every other day and every next day of CCl4 treatment by IP (intraperitoneal injection) or oral administration (50 mg/kG, 40% DMSO, 3 times/week).
Two weeks later, the mice were sacrificed by using ether. The liver was extracted from the sacrificed animal of each group. Paraffin samples were prepared by the same manner as described in Example 5. The paraffin sections in the thickness of 4-5 μm were fixed on slide, followed by H&E (hematoxylin and eosin) staining for the confirmation of hepatic injury, Masson's Trichrome […] staining for collagen type I staining, and immunihistochemistry with the antibody (1:1500) against α-SMA (smooth muscle actin, Sigma).
Additionally, two mice were randomly selected from each group, from which liver tissue extract was prepared. The protein in the extract was quantified, followed by Western blotting with antibodies against phospho-Y^1173EGFR (Santa Cruz Biotechnology, Santa Cruz, Calif.), phospho-Y^1068EGFR (Santa Cruz Biotechnology, Santa Cruz, Calif.), EGFR (Santa Cruz Biotechnology, Santa Cruz, Calif.), phospho-Erk (Cell Signaling Technology, Danvers, Mass.), Erk (Cell Signaling Technology, Danvers, Mass., USA), phospho-Smad3 (Cell Signaling Technology, Danvers, Mass.), TM4SF5 (antibody of Example 1), α-SMA (smooth muscle actin, Sigma), phospho-S^10-p27 (Santa Cruz Biotechnology, Santa Cruz, Calif., USA), p27 (BD Transduct. Lab. San Jose Calif., USA), and α-tubulin (Sigma-Aldrich).

TM4SF5 [4] = target: T2, TM4SF5; test: TGFβ mediated α-SMA expression in normal hepatocytes (AML12 cells) treated with TM4SF5 antagonist, Western blotting; format: cell-based
Description: FIG. 25 is a set of photographs illustrating the results of Western blotting performed to confirm the level of α-SMA expression induced by TGFβ in AML12 cells treated with TSAHC and […].
First, normal hepatocytes were treated with TGFβ to induce TM4SF5 expression and EMT, during which TSAHC was treated. As described hereinbefore, the normal hepatocytes were washed with serum-free DMEM, followed by serum starvation for 4 hours. Then, the cells treated with TGFβ to induce TM4SF5 expression. 6 hours later, the cells were treated with TSAHC at the concentration of 5 μM or 10 μM, followed by culture for 18 hours. The expression of α-SMA protein was investigated.
For the comparison, the cells were treated with the control compound that had similar structure to TSAHC but had substituted R residue (4′-amino-4-hydroxychalcone) at the same concentration as the above (5 μM or 10 μM).

AML12 cells = test: TM4SF5 expression in AML12 cells treated with EGF, HGF and PDGF before TGFβ; format: cell-based, mouse; conditions: growth factor 30 minutes before TGFβ (2.5 ng/ml), 24 hours, serum-free
Description: AML12 cells were cultured in DMEM supplemented with 10% FBS, which were then washed with serum-free DMEM. The cells were maintained as serum-free status for 4 hours. After serum starvation, the cells were treated with EGF, HGF, and PDGF (PeproTech, Inc., Rocky Hill, N.J., USA) 30 minutes before the treatment of TGFβ (2.5 ng/ml) in order to activate EGFR signaling. The cells were further cultured for 24 hours after the treatment of TGFβ. AML12 cell line was the normal hepatocyte cell line which was sensitive to serum. To make near death condition, the medium was regulated as serum-free and the experiment was carried out under the serum-free condition and ITS (Insulin, transferrin, selenium, Sigma-Aldrich) treated condition, which was the same serum-free condition as mentioned above.
Western blotting was performed to confirm TM4SF5 expression. As a result, when the cells were treated with EGF, HGF, and PDGF, EGFR signaling was activated and thereby TM4SF5 expression was increased (FIG. 11).

Chang cells = test: TM4SF5 expression and EGFR signal transduction system over treatment times of TGFβ and EGF in Chang cells; format: cell-based, human
Description: Chang cells were cultured in DMEM supplemented with 10% FBS, which were then washed with serum-free DMEM. The cells were maintained as serum-free status for 4 hours. […] Then, TM4SF5 expression and EGFR signal transduction system were investigated.

[5] = liver tissue of CCl4 treated mice
[6] = AML12 cells, compound 5 μM or 10 μM 6 hours after TGFβ, culture for 18 hours, Western blotting

O=C(/C=C/c1ccc(O)cc1)c1ccc(O)cc1 [4′4-dihydroxychalcone, reference compound]
TGFβ1 mediated vimentin expression (TM4SF5 [1]): not much changed | TGFβ1 mediated vimentin expression (TM4SF5 [2]): not much changed

Nc1ccc(C(=O)/C=C/c2ccc(O)cc2)cc1 [4′-amino-4-hydroxychalcone, reference compound]
hepatic injury (H&E staining) ([3]; CCl4 together with compound): CCl4 dependency was not observed | collagen type I expression (Masson's Trichrome staining) ([3]; CCl4 together with compound): not detected | Ser10 phosphorylation induction (p27) [3]: not inhibited | TM4SF5 signal transduction process (phosphorylation of Smad3, phosphorylation and activation of EFGR/Erk) [3]: not affected | p27 expression [3]: not inhibited | α-SMA expression induction [3]: not inhibited | EMT [3, 5]: not inhibited | TGFβ mediated α-SMA expression (TM4SF5 [4]; [6]): did not affect | TM4SF5 expression (TM4SF5 [4]; [6]): did not affect

Nc1ccc(S(=O)(=O)Nc2ccc(C(=O)/C=C/c3ccc(O)cc3)cc2)cc1 [ASAHC, 4′-(p-aminobenzenesulfonylamino)-4-hydroxychalcone]
TGFβ1 mediated vimentin expression (TM4SF5 [1]): down-regulated | TGFβ1 mediated vimentin expression (TM4SF5 [2]): down-regulated

Cc1ccc(S(=O)(=O)Nc2ccc(C(=O)/C=C/c3ccc(O)cc3)cc2)cc1 [TSAHC, 4′-(p-toluenesulfonylamino)-4-hydroxychalcone]
TGFβ1 mediated vimentin expression (TM4SF5 [1]): down-regulated | hepatic injury (H&E staining) ([3]; CCl4 together with compound): reduced | α-SMA expression (immunohistochemical staining) ([3]; CCl4 together with compound, liver tissue): reduced | collagen type I expression (Masson's Trichrome staining) ([3]; CCl4 together with compound): decrease; also recorded: reduced | liver H&E staining, compound only ([3]; group treated with compound only, without CCl4): normal liver | Ser10 phosphorylation induction (p27) [3]: inhibited | TM4SF5 signal transduction process (phosphorylation of Smad3, phosphorylation and activation of EFGR/Erk) [3]: not affected | p27 expression [3]: inhibited | α-SMA expression induction [3]: inhibited | EMT [3, 5]: decrease; also recorded: inhibited | TM4SF5 activity [3, 5]: suppressed | TGFβ mediated α-SMA expression (TM4SF5 [4]; [6]): significantly reduced; also recorded: inhibit | EFGR/Erk phosphorylation (TM4SF5 [4]; normal hepatocytes treated with TGFβ and compound): reduced | TGFβ1 mediated vimentin expression (TM4SF5 [2]): down-regulated

EGF: growth factor (PeproTech) used to activate EGFR signaling
TM4SF5 expression (AML12 cells): increased | EGFR signal transduction system activation and TM4SF5 expression, EGF only (Chang cells; EGF only for 4 hours at different concentrations): not particularly induced | EGFR signal transduction system activation and TM4SF5 expression over time (Chang cells; TGFβ (2.5 ng/ml) and EGF (50 ng/ml), 0, 0.5, 1, 2, and 24 hours): induced temporally

HGF: growth factor (PeproTech) used to activate EGFR signaling
TM4SF5 expression (AML12 cells): increased

PDGF
TM4SF5 expression (AML12 cells): increased
